Experimental data as given in US20050227999A1, “Diarylamine derivatives as calcium channel blockers” (NeuroMed Technologies Inc., priority 2004, published 2005).
Read-outs that look alike come from different tables or passages of the source.

Key:
[1] = test system: T-type over L-type channels; conditions: cited from earlier work
[2] = molecular target: T1, rat brain N-type calcium channel subunits (α1B+α2δ+β1b cDNA subunits) (Rattus norvegicus, UniProt Q02294); test: N-type calcium channel block, whole cell patch clamp in transfected HEK 293 cells; type: cell-based; conditions: holding potential −80 mV to +10 mV
T1 construct: expressed in transfected cells; host or cells: HEK 293
Procedure: N-type calcium channel blocking activity was assayed in human embryonic kidney cells, HEK 293, stably transfected with the rat brain N-type calcium channel subunits (α1B+α2δ+β1b cDNA subunits). Alternatively, N-type calcium channels (α1B+α2δ+β1b cDNA subunits), L-type channels (α1C+δ+β1b cDNA subunits) and P/Q-type channels (α1A+α2δ+β1b cDNA subunits) were transiently expressed in HEK 293 cells. Briefly, cells were cultured in Dulbecco's modified eagle medium (DMEM) supplemented with 10% fetal bovine serum, 200 U/ml penicillin and 0.2 mg/ml streptomycin at 37° C. with 5% CO2. At 85% confluency cells were split with 0.25% trypsin/l mM EDTA and plated at 10% confluency on glass coverslips. At 12 hours the medium was replaced and the cells transiently transfected using a standard calcium phosphate protocol and the appropriate calcium channel cDNA's. Fresh DMEM was supplied and the cells transferred to 28° C./5% CO2. Cells were incubated for 1 to 2 days before cell recording.
Whole cell patch clamp experiments were performed using an Axopatch 200B amplifier (Axon Instruments, Burlingame, Calif.) linked to a personal computer equipped with PCLAMP software. The external and internal recording solutions contained, respectively, 5 mM BaCl2, 10 mM MgCl2, 10 mM HEPES, 40 mM TEACl, 10 mM glucose, 87.5 mM CsCl (pH 7.2) and 108 mM CsMS, 4 mM MgCl2, 9 mM EGTA, 9 mM HEPES (pH 7.2). Currents were typically elicited from a holding potential of −80 mV to +10 mV using Clampex software (Axon Instruments). Typically, currents were first elicited with low frequency stimulation (0.067 Hz) and allowed to stabilize prior to application of the compounds. The compounds were then applied during the low frequency pulse trains for two to three minutes to assess tonic block, and subsequently the pulse frequency was increased to 0.2 Hz to assess frequency dependent block. Data were analyzed using Clampfit (Axon Instruments) and SigmaPlot 4.0 (Jandel Scientific). […]

[3] = molecular target: T2, human α1G T-type channels (Homo sapiens, UniProt O43497); test: T-type calcium channel block, patch clamp in HEK cell lines; type: cell-based
T2 construct: expressed in transfected cells
T2 sequence (O43497 whole entry): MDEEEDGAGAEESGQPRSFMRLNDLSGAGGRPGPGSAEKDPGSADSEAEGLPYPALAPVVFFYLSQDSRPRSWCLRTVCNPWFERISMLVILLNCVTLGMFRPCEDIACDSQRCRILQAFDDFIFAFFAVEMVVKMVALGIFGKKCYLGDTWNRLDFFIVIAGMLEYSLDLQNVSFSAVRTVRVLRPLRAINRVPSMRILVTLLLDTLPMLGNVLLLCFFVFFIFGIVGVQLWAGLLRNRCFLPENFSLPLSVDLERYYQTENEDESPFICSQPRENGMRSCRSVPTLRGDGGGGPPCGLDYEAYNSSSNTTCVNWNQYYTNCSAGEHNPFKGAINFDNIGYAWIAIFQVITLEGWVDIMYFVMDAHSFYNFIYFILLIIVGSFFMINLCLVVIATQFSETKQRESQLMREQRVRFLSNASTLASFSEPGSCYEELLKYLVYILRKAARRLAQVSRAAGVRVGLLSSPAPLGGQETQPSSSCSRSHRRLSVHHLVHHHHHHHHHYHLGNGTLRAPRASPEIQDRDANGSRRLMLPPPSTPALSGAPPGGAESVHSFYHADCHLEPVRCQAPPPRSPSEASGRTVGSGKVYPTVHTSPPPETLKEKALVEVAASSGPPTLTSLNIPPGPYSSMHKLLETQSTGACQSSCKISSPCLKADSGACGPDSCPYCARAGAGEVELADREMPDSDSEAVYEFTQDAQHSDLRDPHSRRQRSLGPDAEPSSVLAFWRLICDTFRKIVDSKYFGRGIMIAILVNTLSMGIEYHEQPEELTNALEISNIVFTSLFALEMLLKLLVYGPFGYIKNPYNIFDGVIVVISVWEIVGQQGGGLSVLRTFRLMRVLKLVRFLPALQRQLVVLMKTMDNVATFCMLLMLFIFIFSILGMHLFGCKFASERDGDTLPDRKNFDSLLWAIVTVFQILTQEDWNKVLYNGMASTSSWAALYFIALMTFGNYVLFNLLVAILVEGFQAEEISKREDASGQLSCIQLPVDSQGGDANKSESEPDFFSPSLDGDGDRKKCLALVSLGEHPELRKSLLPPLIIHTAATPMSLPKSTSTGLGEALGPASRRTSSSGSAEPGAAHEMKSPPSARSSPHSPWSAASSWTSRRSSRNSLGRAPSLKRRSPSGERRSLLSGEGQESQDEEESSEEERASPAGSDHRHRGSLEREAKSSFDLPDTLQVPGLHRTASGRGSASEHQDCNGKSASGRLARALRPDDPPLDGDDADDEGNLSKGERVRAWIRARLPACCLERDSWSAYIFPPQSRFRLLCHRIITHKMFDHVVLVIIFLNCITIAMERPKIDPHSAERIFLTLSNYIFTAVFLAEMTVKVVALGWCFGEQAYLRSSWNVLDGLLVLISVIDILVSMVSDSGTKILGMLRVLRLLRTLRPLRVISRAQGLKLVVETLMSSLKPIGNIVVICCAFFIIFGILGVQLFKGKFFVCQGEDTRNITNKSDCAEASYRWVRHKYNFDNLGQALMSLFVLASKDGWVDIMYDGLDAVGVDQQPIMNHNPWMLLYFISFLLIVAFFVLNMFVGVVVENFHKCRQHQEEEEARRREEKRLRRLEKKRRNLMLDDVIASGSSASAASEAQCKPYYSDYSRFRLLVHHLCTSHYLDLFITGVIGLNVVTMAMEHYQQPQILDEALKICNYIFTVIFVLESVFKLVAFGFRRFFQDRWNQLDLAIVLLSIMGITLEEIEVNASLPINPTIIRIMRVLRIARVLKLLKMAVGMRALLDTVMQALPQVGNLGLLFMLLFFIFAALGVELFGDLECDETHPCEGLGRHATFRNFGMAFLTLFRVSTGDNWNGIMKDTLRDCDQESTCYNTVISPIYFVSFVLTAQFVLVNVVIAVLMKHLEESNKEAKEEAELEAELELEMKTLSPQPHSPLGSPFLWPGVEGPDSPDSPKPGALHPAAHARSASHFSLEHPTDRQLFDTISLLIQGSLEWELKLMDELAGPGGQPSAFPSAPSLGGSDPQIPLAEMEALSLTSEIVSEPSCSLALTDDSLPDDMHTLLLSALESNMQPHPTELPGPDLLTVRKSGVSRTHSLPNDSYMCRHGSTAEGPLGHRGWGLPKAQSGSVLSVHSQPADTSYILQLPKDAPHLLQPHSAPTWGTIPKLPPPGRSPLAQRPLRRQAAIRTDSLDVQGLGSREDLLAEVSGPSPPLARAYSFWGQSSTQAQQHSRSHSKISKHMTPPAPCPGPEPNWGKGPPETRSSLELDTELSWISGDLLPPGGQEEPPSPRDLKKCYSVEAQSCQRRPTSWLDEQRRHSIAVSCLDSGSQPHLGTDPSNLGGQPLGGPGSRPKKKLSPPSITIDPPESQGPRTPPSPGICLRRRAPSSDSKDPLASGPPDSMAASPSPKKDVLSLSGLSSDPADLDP
Procedure: Standard patch-clamp techniques were employed to identify blockers of T-type currents. Briefly, previously described HEK cell lines stably expressing human α1G T-type channels were used for all the recordings (passage #: 4-20, 37° C., 5% CO2). To obtain T-type currents, plastic dishes containing semi-confluent cells were positioned on the stage of a ZEISS AXIOVERT S100 microscope after replacing the culture medium with external solution (see below). Whole-cell patches were obtained using pipettes (borosilicate glass with filament, O.D.: 1.5 mm, I.D.: 0.86 mm, 10 cm length), fabricated on a SUTTER P-97 puller with resistance values of ˜5 MΩ (see below for internal solution).
In the non-inactivating protocol, the holding potential is set at −110 mV and with a pre-pulse at −100 mV for 1 second prior to the test pulse at 40 mV for 50 ms. […]
Test compounds were dissolved in external solution, 0.1-0.01% DMSO. After ˜10 min rest, they were applied by gravity close to the cell using a WPI microfil tubing. The “non-inactivated” pre-pulse was used to examine the resting block of a compound. The “inactivated” protocol was employed to study voltage-dependent block. However, the initial data shown below were mainly obtained using the non-inactivated protocol only. IC50 values are shown for various compounds of the invention in Table 4.

rat formalin model = test: Formalin-induced pain model; type: in vivo; conditions: 30 mg/kg IP, 10 minutes prior to formalin, saline control=100%
Procedure: The effects of intrathecally delivered compounds of the invention on the rat formalin model were measured. The compounds were reconstituted to stock solutions of approximately 10 mg/ml in propylene glycol. Eight Holtzman male rats of 275-375 g size were randomly selected per test article.
The following study groups were used, with test article, vehicle control (propylene glycol) and saline delivered intraperitoneally (IP):
Prior to initiation of drug delivery baseline behavioral and testing data were taken.
On the morning of testing, a small metal band (0.5 g) was loosely placed around the right hind paw. The rat was placed in a cylindrical Plexiglas chamber for adaptation a minimum of 30 minutes. Test Article or Vehicle Control Article was administered 10 minutes prior to formalin injection (50 μl of 5% formalin) into the dorsal surface of the right hindpaw of the rat. The animal was then placed into the chamber of the automated formalin apparatus where movement of the formalin injected paw was monitored and the number of paw flinches tallied by minute over the next 60 minutes (Malmberg, A. B., et al., Anesthesiology (1993) 79:270-281).
Results are presented as Maximum Possible Effect±SEM, where saline control=100%.

[4] = test system: spinal nerve ligation (SNL) injury; test: Spinal nerve ligation (SNL) model of neuropathic pain, thermal hyperalgesia; type: in vivo; conditions: rat SNL, 30 mg/kg orally in propylene glycol
Source text: Spinal nerve ligation (SNL) injury was induced using the procedure of Kim and Chung, (Kim and Chung 1992) in male Sprague-Dawley rats (Harlan; Indianapolis, Ind.) weighing 200 to 300 grams. Anesthesia was induced with 2% halothane in O2 at 2 L/min and maintained with 0.5% halothane in O2. After surgical preparation of the rats and exposure of the dorsal vertebral column from L4 to S2, the L5 and L6 spinal nerves were tightly ligated distal to the dorsal root ganglion using 4-0 silk suture. The incision was closed, and the animals were allowed to recover for 5 days. […] Sham control rats underwent the same operation and handling as the experimental animals, but without SNL.
The method of Hargreaves and colleagues (Hargreaves, et al., 1988) was employed to access paw-withdrawal latency to a thermal nociceptive stimulus. Rats were allowed to acclimate within a plexiglas enclosure on a clear glass plate maintained at 30° C. A radiant heat source (i.e., high intensity projector lamp) was activated with a timer and focused onto the plantar surface of the affected paw of nerve-injured or carrageenan-injected rats. Paw-withdrawal latency was determined by a photocell that halted both lamp and timer when the paw was withdrawn. The latency to withdrawal of the paw from the radiant heat source was determined prior to carrageenan or […], 3 hours after carrageenan or 7 days after L5/L6 SNL but before drug and after drug ministration. A maximal cut-off of 40 seconds was Employed to prevent tissue damage. Paw withdrawal latencies were thus determined to the Nearest 0.1 second. Reversal of thermal hyperalgesia was indicated by a return of the paw Withdrawal latencies to the pre-treatment baseline latencies (i.e., 21 seconds). Anti nociception Was indicated by a significant (p <0.05) increase in paw withdrawal latency above this baseline. Data were converted to % anti hyperalgesia by the formula: (100qx (test latency−baseline latency)/(cut-off−baseline latency) where cut-off was 21 seconds for determining anti hyperalgesia.
Compound 7 was administered orally in propylene glycol solution at a dose of 30 mg/kg. The percent activity was calculated for thermal hyperalgesia.

Row | IC50 ([2]; low frequency stimulation 0.067 Hz (tonic block), read-out: IC50 @ 0.067 Hz) | IC50 ([2]; pulse frequency 0.2 Hz (frequency dependent block), read-out: IC50 @ 0.2 Hz) | IC50 ([3]; −80 mV (inactivation protocol, voltage-dependent block), read-out: IC50 - 80 mV) | IC50 ([3]; −100 mV pre-pulse (non-inactivating protocol, resting block), read-out: IC50 - 100 mV) | Structure (SMILES) | selective for T-type over L-type channels [1] | Maximum Possible Effect±SEM, Phase II Total (rat formalin model) | Maximum Possible Effect±SEM, Phase IIB (rat formalin model) | Thermal Hyperalgesia (% Activity) ([4]; 30 min) | Thermal Hyperalgesia (% Activity) ([4]; 60 min) | Thermal Hyperalgesia (% Activity) ([4]; 90 min) | Thermal Hyperalgesia (% Activity) ([4]; 120 min)
1 |  |  |  |  | COCC(=O)O[C@]1(CCN(C)CCCc2nc3ccccc3[nH]2)CCc2cc(F)ccc2[C@@H]1C(C)C [Mibefradil] | 10-30 fold |  |  |  |  |  | 
2 | 180 nM | 140 nM | 1000 nM | 1000 nM | O=C(CN(c1ccccc1)c1ccccc1)N1CCN(C(c2ccccc2)c2cccc(Cl)c2Cl)CC1 (centres unmarked) [Compound 7, 1-{4-[(2,3-Dichloro-phenyl)-phenyl-methyl]-piperazin-1-yl}-2-diphenylamino-ethanone] |  | 63 ± 10% | 64 ± 11% | 38.45 ± 18.52% | 78.54 ± 10.74% | 40.21 ± 17.08% | 20.98 ± 10.36%
